Where a name gives a salt, the structure may show the parent alone.

The first experiment concerns hPSC-SCs.
Details: not given
`COc1cc2c(c(OC)c1OC)-c1ccc(O)c(=O)cc1C(N)CC2` (stereo not shown) [Trimethylcolchicinic acid] returned a z.score.t of −0.07901.
In turn, `CN1[C@@H]2CC[C@H]1C[C@@H](O)C2` [Tropine] returned a z.score.t of −0.6133.
`COc1cc2c3cc1Oc1cc(ccc1O)C[C@@H]1c4c(cc(OC)c(O)c4Oc4ccc(cc4)C[C@@H]3N(C)CC2)CC[N+]1(C)C.Cl.O.O.O.O.O.[Cl-]` [Tubocurarine chloride pentahydrate (+)]: the z.score.t is listed as −1.166.
As to `Cc1cccc(C)c1N=C1NCCCS1` [Xylazine], the z.score.t is 1.75.
The same measure, in the same setting: as for `O.O=C(O)[C@@H]1[C@H]2C[C@H]3c4[nH]c5ccccc5c4CCN3C[C@@H]2CC[C@@H]1O` [Yohimbinic acid monohydrate], the figure is −0.2065.
As for `CC1=C2[C@H]3OC(=O)[C@@H](C)[C@@H]3CC[C@@]2(C)C=CC1=O` [alpha-Santonin], the z.score.t was −1.108.
The molecule `CC[N+]1(C)[C@@H]2CC[C@H]1CC(OC(=O)[C@@H]1CC[C@@](C(=O)OC3C[C@H]4CC[C@@H](C3)[N+]4(C)CC)(c3ccccc3)c3ccccc31)C2.[Cl-].[Cl-]` (stereo partly drawn) [beta-Belladonnine dichloroethylate] registered a z.score.t of 1.872.
The molecule (−)-MK 801 hydrogen maleate gave a z.score.t of 1.657.
Still for that read-out and setting: the result for (−)-Quinpirole hydrochloride reads 1.683; that for Antimycin A, −1.787.
With Avermectin B1, the z.score.t is recorded as 0.7158.
Still for that read-out and setting: as for Bromocryptine mesylate, the figure is −1.272; as for Butirosin disulfate salt, −0.5169.
For the molecule Colistin sulfate, the z.score.t is −0.4139.
For Cotinine (−), the z.score.t is listed as −0.139.
The molecule Cyanocobalamin showed a z.score.t of 0.837.
Still for that read-out and setting: the result for Cytisine (−) reads −0.1641; that for Deptropine citrate, −0.247; that for Dihydroergotamine tartrate, −0.5417.
For Foliosidine, the z.score.t was −0.2802.
Consider Guanadrel sulfate, for which the z.score.t worked out at 0.7158.
Molecule Helveticoside yielded a z.score.t of 1.053.
The molecule Isoetharine mesylate salt had a z.score.t of 0.5976.

Staying with this experiment, now noted: HTS viability of hPSC-SCs in the presence of 30 mM glucose; Prestwick library; Table S4.
On to `COc1cc(C(=O)NCc2ccc(OCCN(C)C)cc2)cc(OC)c1OC` [Trimethobenzamide hydrochloride], for which the z.score.t is on record as −0.2719.
Consider `COc1cc(Cc2cnc(N)nc2N)cc(OC)c1OC` [Trimethoprim], for which the z.score.t is 0.2479.
Consider `Cc1cc2cc3c(C)cc(=O)oc3c(C)c2o1` [Trioxsalen], for which the z.score.t was −0.1913.
Turning to `Cc1ccc(/C(=C\CN2CCCC2)c2ccccn2)cc1` [Triprolidine hydrochloride], the z.score.t was found to be 0.2479.
`CO[C@H]1C[C@H](O[C@H]2[C@H](C)[C@@H](O[C@@H]3O[C@H](C)C[C@H](N(C)C)[C@H]3OC(C)=O)[C@@H](C)C[C@@]3(CO3)C(=O)[C@H](C)[C@@H](OC(C)=O)[C@@H](C)[C@@H](C)OC(=O)[C@@H]2C)O[C@@H](C)[C@@H]1OC(C)=O` [Troleandomycin]: the z.score.t stood at 1.067.
Same read-out and setting: as for `Cc1c(C)c2c(c(C)c1O)CCC(C)(C(=O)O)O2` (stereo not shown) [Trolox], the figure is 2.048.
With `CN1[C@@H]2CC[C@H]1C[C@@H](OC(=O)c1c[nH]c3ccccc13)C2` [Tropisetron HCl], the z.score.t is on record as −0.7595.
In the case of `CO[C@@H]1C=C2CCN(C)[C@@H]2C2c3cc4c(cc3C(=O)OC21)OCO4.O=[N+]([O-])O` (stereo partly shown) [Ungerine nitrate], the z.score.t is reported as 1.117.
As to `COc1ccccc1N1CCN(CCCNc2cc(=O)n(C)c(=O)n2C)CC1` [Urapidil hydrochloride], the z.score.t was 0.4105.
On the same count and under the same terms, the result for `C[C@H](CCC(=O)O)[C@H]1CC[C@H]2[C@@H]3[C@@H](O)C[C@@H]4C[C@H](O)CC[C@]4(C)[C@H]3CC[C@]12C` [Urosiol] reads −0.6988; that for `C[C@H]1[C@H](C)CC[C@]2(C(=O)O)CC[C@]3(C)C(=CC[C@@H]4[C@@]5(C)CC[C@H](O)C(C)(C)[C@@H]5CC[C@]43C)[C@H]12` [Ursolic acid], −0.765.
As to `Nc1ncnc2c1ncn2[C@@H]1O[C@H](CO)[C@@H](O)[C@@H]1O` [Vidarabine], the z.score.t is recorded as 0.1019.
In the case of `C=CC(N)CCC(=O)O` (stereo not shown) [Vigabatrin], the z.score.t was −0.8304.
As for `CC[C@]12CCCN3CCc4c(n(c5ccccc45)[C@@](O)(C(=O)OC)C1)[C@@H]32` [Vincamine], the z.score.t was 0.08508.
Regarding `CCOC(=O)C1=C[C@]2(CC)CCCN3CCc4c(n1c1ccccc41)[C@@H]32` [Vinpocetine], the z.score.t worked out at 0.6517.
`O=c1cc(-c2ccc(O)cc2)oc2c([C@@H]3O[C@H](CO)[C@@H](O)[C@H](O)[C@H]3O)c(O)cc(O)c12` [Vitexin]: the z.score.t was −0.05622.
On the same count and under the same terms, as for `O=C(NCCNCC(O)COc1ccc(O)cc1)N1CCOCC1` (stereo not shown) [Xamoterol hemifumarate], the figure is 0.81; as for `Cc1cc(C(C)(C)C)cc(C)c1CC1=NCCN1` [Xylometazoline hydrochloride], −0.827.
Turning to `COC(=O)[C@@H]1[C@H]2C[C@H]3c4[nH]c5ccccc5c4CCN3C[C@@H]2CC[C@@H]1O` [Yohimbine hydrochloride], the z.score.t was determined as 0.6763.
On the same count and under the same terms, the result for `Nc1ccn([C@H]2CC[C@@H](CO)O2)c(=O)n1` [Zalcitabine] reads −0.9487; that for `CCCOc1ccccc1-c1nc2nn[nH]c2c(=O)[nH]1` [Zaprinast], −0.4341.
With `COc1cc(-c2ccc(=O)[nH]n2)ccc1OC(F)F` [Zardaverine], the z.score.t is −1.128.
With `Cc1cn([C@H]2C[C@H](N=[N+]=[N-])[C@@H](CO)O2)c(=O)[nH]c1=O` [Zidovudine, AZT], the z.score.t is −0.8478.
With `CN(C)C/C=C(/c1ccc(Br)cc1)c1cccnc1` [Zimelidine dihydrochloride monohydrate], the z.score.t worked out at 0.4064.
Still for that read-out and setting: the result for `Cc1cc(CC(=O)O)n(C)c1C(=O)c1ccc(Cl)cc1` [Zomepirac sodium salt] reads −0.9042.
Same read-out and setting: as for `OCCN1CCN(CC/C=C2/c3ccccc3Sc3ccc(Cl)cc32)CC1` [Zuclopenthixol hydrochloride], the figure is −1.345; as for `CCCCNC(=O)NS(=O)(=O)c1ccc(C)cc1` [tolbutamide, Tolbutamide, reference compound], 2.089.
The same measure, in the same setting: as for (S)-(−)-Atenolol, the figure is 1.606; as for (S)-propranolol hydrochloride, 0.6803; as for Alverine citrate salt, −1.025.
In the case of Beta-Escin, the z.score.t is given as −0.5583.
Take Carbinoxamine maleate salt: the z.score.t amounted to 0.07936.
Still for that read-out and setting: the result for Clofilium tosylate reads −0.6227; that for Dihydroergotoxine mesylate, 0.9377.
The same measure, in the same setting: as for Eburnamonine (−), the figure is 1.516.
Same read-out and setting: the result for Ifenprodil tartrate reads −1.132.
In the case of Iobenguane sulfate, the z.score.t is 0.3845.
Still for that read-out and setting: as for Ketanserin tartrate hydrate, the figure is −1.137.
